In patent publication US20100076489A1, “WOUND CLOSURE MATERIAL” (priority 2007, published 2010):

Assay: Saturation concentration of paclitaxel in various release media (HPLC)
Type: physicochemical
Description: Paclitaxel concentrations were then measured with a Waters 2965 series HPLC (commercially available from Waters Corporation). A 20 μL from each sample was injected into a Phenomenex ODS-2 INERTSIL (5.0 μm, 150 mm×4.6, from Phenomenex) which was maintained at about 30° C. The sample runs were conducted for about 10 minutes, with a flow rate at 0.8 mL/minute. The mobile phase included about 55% acetonitrile and 45% water (v/v). The paclitaxel was detected at a wavelength of about 230 nm with a photodiode array detector (Waters series 2996, commercially available from Waters Corporation).
A release medium, including phosphate buffered saline (PBS) with about 0.1% of a polyethoxylated fatty acid ester of sorbitan (also referred to as polysorbates, commercially available as TWEEN™ 80) (w/v) and about 0.5% sodium dodecylsulfate (SDS) (w/v) was prepared as follows. About 100 mL of 10×PBS concentrate was added to a 1 liter volumetric flask. The flask was filled to the line with Milli-Q water and stirred for about 15 minutes. To the solution, about 1 mL of TWEEN™ 80 was added and stirred with a magnetic stir bar until the TWEEN™ 80 was completely dissolved. Approximately 5 grams of sodium dodecylsulfate was then added and the solution was stirred for about 45 minutes. The pH of the solution was tested and found to be about 7.3.
The saturation concentration of paclitaxel in various release media was determined using the previously mentioned high pressure liquid chromatography method. In addition to the release media including PBS with about 0.1% TWEEN™ 80 and 0.5% Sodium Dodecyl Sulfate described above, other media were similarly tested. The additional media included PBS with about 0.1% by weight PLURAFAC® surfactant (commercially available from BASF), PBS with about 0.1% by weight TWEEN™ 80, and PBS with about 0.8% by weight Dimethyl-b-Cyclodextrin. A summary of the results is provided below in Table 1.

Saturation concentration of Paclitaxel (Media: PBS w/0.1% Plurafac): 0.1 ± .01 µg/mL
Saturation concentration of Paclitaxel (Media: PBS w/0.1% TWEEN 80): 2.2 ± 0.2 µg/mL
Saturation concentration of Paclitaxel (Media: PBS w/0.1% TWEEN 80 and 0.5% Sodium Dodecyl Sulfate): 52.8 ± 6.4 µg/mL
Saturation concentration of Paclitaxel (Media: PBS w/0.8% Dimethyl-b-Cyclodextrin): 7.3 µg/mL
Structure (SMILES): CC(=O)O[C@H]1C(=O)[C@@]2(C)[C@H]([C@H](OC(=O)c3ccccc3)[C@]3(O)C[C@H](OC(=O)[C@H](O)[C@@H](NC(=O)c4ccccc4)c4ccccc4)C(C)=C1C3(C)C)[C@]1(OC(C)=O)CO[C@@H]1C[C@@H]2O [Paclitaxel, paclitaxel]
